{"source": "ChEMBL document CHEMBL5465560", "about": "“Selectivity Literature for EUbOPEN Chemogenomic Library” (2024)", "key": {"[1]": {"target": "Serine/threonine-protein kinase 38-like (Homo sapiens) (UniProt Q9Y2H1)", "sequence (Q9Y2H1 2-464 limits assumed)": "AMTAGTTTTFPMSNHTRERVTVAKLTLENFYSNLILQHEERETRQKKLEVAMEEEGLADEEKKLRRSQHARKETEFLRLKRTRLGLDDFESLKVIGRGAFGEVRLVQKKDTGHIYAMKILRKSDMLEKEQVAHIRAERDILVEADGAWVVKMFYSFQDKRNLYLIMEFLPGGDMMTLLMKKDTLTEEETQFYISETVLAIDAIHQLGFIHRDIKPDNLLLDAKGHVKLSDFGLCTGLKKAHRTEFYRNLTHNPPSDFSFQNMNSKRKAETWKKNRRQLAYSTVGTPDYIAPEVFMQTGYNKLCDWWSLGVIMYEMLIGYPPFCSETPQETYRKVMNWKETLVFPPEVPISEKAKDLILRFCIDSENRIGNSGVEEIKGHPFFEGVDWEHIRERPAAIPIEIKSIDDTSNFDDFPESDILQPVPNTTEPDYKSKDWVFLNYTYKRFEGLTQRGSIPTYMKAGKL", "experiment": "Selectivity interaction (Kinase panel (KiNativ target engagement assay in Jurkat cells)) EUB0001635a STK38L", "type": "cell-based", "conditions": "Selectivity number of off-targets 0.0, Selectivity number of targets 233.0, Source Knowledge https://www.sciencedirect.com/science/article/pii/S2451945619300674?via%3Dihub, at 1 µM"}, "[2]": {"experiment": "Selectivity interaction (Kinase panel (KiNativ target engagement assay in Jurkat cells)) EUB0001635a STLK6", "conditions": "Selectivity number of off-targets 0; Selectivity number of targets 233; Source Knowledge https://www.sciencedirect.com/science/article/pii/S2451945619300674?via%3Dihub; at 1 µM"}, "[3]": {"target": "T1, Serine/threonine-protein kinase ULK2 (Homo sapiens) (UniProt Q8IYT8)", "T1 sequence (whole entry)": "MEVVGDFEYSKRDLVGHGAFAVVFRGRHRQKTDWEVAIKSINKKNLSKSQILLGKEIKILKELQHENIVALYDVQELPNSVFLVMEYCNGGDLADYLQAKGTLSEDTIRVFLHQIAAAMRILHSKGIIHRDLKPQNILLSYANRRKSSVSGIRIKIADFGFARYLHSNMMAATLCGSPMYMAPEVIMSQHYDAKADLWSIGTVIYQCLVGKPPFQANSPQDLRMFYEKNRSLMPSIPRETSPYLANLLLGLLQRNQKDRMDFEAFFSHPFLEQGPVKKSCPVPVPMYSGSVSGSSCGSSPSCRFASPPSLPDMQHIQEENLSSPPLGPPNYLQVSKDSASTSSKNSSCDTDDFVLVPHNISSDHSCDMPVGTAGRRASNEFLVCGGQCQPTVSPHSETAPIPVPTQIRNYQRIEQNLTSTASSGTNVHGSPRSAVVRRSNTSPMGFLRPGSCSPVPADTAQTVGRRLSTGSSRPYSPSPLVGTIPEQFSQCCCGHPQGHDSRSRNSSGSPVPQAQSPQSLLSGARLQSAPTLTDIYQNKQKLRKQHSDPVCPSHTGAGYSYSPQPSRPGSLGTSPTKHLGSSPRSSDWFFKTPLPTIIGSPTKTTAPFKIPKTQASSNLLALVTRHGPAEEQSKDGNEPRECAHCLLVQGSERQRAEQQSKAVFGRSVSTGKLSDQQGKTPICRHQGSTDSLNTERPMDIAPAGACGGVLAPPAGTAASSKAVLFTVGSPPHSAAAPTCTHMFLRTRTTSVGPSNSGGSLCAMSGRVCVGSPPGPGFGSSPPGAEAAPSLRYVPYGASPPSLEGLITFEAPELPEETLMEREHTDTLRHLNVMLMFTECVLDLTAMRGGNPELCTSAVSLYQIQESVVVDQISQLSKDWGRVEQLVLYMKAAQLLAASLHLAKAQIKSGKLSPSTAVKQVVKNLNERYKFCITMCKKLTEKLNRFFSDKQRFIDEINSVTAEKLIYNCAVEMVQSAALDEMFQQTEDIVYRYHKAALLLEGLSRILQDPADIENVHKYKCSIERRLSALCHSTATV", "experiment": "Selectivity interaction (KinomeScan (DiscoverX)) EUB0000595a ULK2", "conditions": "at 10 µM"}, "[4]": {"target": "Serine/threonine-protein kinase pim-3 (Homo sapiens) (UniProt Q86V86)", "conditions": "at 10 µM"}, "[5]": {"target": "T2, Serine/threonine-protein kinase D2 (Homo sapiens) (UniProt Q9BZL6)", "T2 sequence (whole entry)": "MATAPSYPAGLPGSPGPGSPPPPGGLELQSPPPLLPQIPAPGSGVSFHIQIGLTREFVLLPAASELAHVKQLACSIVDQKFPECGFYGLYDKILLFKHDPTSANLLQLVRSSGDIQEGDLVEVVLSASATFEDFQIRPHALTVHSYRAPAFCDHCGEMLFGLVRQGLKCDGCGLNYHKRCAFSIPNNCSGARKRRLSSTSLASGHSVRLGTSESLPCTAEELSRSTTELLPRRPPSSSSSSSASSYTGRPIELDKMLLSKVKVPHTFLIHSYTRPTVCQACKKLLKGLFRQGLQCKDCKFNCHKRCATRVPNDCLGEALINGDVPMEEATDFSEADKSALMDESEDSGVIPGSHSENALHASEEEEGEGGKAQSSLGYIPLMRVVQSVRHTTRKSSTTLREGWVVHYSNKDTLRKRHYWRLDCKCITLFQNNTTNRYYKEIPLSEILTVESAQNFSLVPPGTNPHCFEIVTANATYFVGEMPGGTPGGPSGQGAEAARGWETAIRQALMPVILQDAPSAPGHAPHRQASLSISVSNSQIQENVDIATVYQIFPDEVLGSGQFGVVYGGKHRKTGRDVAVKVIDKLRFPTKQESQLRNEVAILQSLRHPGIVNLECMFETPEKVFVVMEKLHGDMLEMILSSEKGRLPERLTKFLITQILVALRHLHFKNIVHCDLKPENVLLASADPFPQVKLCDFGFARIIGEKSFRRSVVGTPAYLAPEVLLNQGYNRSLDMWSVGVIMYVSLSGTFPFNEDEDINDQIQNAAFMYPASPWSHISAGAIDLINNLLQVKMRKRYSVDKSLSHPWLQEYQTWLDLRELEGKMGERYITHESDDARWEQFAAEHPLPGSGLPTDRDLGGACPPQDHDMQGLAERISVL", "experiment": "Selectivity interaction (ActivX KiNativ screen (kinase selectivity in THP-1 cell lysates)) EUB0000639a PRKD2", "type": "subcellular", "conditions": "lysate, at 5 µM"}}}
{"smiles": "C=CC(=O)Nc1ccc(C(=O)Nc2[nH]nc3c2CN(C(=O)N[C@H](CN(C)C)c2ccccc2)C3(C)C)cc1", "values": [{"measurement": "% of engagement", "setting": "[1]", "result": 3.8, "unit": "%"}, {"measurement": "% of engagement", "setting": "[2]", "result": -0.5, "unit": "%"}]}
{"smiles": "COCC(=O)NC/C=C/c1ccc2ncnc(Nc3ccc(Oc4ccc(C)nc4)c(C)c3)c2c1", "note": "[CP-724714]", "values": [{"measurement": "% of control", "setting": "[3]", "result": 100, "unit": "%"}]}
{"smiles": "Cc1cc([C@@H](C)Nc2ccccc2C(=O)O)c2nc(N3CCOCC3)cc(=O)n2c1", "note": "[AZD-6482]", "values": [{"measurement": "% of control", "setting": "[4]", "result": 100, "unit": "%"}]}
{"smiles": "CC[C@@H]1[C@H](F)C(=O)N[C@@H]1COc1nccc2cc(C(N)=O)c(OC)cc12", "note": "[ZIMLOVISERTIB]", "values": [{"measurement": "% of inhibition", "setting": "[5]", "result": 8.9, "unit": "%"}]}
